This is an account of results in patent publication US20120220581A1, “IMIDAZO[1,2-b]PYRIDAZINE DERIVATIVES AND THEIR USE AS PDE10 INHIBITORS” (Janssen-Cilag, S.A., priority 2009, published 2012).

The structures appear in SMILES notation. A value given as a limit tells only on which side of the number the result lay.

Assay [1] concerns the target T1, Rat recombinant PDE10A (rPDE10A2) (Rattus norvegicus, UniProt Q9QYJ6).
T1 construct: inferred from the Ni metal chelate purification; made in house; host or cells: Sf9 insect cells (baculovirus)
T1 sequence (Q9QYJ6 1-794): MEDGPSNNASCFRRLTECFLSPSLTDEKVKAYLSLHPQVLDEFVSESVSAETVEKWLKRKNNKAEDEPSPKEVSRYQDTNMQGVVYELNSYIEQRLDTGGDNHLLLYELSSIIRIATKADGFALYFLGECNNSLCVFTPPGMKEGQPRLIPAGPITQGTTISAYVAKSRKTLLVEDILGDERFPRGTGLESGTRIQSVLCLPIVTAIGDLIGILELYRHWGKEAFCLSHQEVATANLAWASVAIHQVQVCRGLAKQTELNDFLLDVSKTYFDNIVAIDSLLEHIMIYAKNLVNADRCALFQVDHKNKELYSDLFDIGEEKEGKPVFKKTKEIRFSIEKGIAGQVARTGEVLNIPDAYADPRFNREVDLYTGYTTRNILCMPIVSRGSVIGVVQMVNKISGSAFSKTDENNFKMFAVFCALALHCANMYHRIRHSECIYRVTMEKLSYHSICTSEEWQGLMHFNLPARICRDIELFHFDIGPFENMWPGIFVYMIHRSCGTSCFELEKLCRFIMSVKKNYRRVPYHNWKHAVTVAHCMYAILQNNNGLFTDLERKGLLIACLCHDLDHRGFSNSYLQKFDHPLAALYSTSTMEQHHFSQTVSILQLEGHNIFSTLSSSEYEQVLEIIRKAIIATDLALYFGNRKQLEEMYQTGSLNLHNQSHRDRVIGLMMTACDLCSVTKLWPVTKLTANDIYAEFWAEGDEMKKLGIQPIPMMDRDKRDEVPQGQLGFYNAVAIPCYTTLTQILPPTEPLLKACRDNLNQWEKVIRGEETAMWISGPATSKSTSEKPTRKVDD
Nature of the assay: In vitro assay PDE10A (SPA, 3H-cAMP). The settings on record: pIC50 corresponds to the −log IC50 expressed in mol/L; read-out: PDE10A2 pIC50 (converted). It is filed as biochemical. The method, then:
Rat recombinant PDE10A (rPDE10A2) was expressed in Sf9 cells using a recombinant rPDE10A baculovirus construct. Cells were harvested after 48 h of infection and the rPDE10A protein was purified by metal chelate chromatography on Ni-sepharose 6FF. Tested compounds were dissolved and diluted in 100% DMSO to a concentration 100 fold of the final concentration in the assay. Compound dilutions (0.4 μl) were added in 384 well plates to 20 μl of incubation buffer (50 mM Tris pH 7.8, 8.3 mM MgCl2, 1.7 mM EGTA). 10 μl of rPDE10A enzyme in incubation buffer was added and the reaction was started by addition of 10 μl substrate to a final concentration of 60 nM cAMP and 0.008 μCi ^3H-cAMP. The reaction was incubated for 60 minutes at room temperature. […] After sedimentation of the beads during 30 minutes the radioactivity was measured in a Perkin Elmer Topcount scintillation counter and results were expressed as cpm. For blanc values the enzyme was omitted from the reaction and replaced by incubation buffer. Control values were obtained by addition of a final concentration of 1% DMSO instead of compound. The same assay principle is applied for the measurement of the affinity of the compound for other members of the PDE family with appropriate modifications in incubation buffer, substrate concentration, incubation time and stop solution.

The test system of assay [2] is apomorphine-induced stereotypy in rats. Put plainly: Apomorphine-induced stereotypy in rats (APO). The conditions noted are these: Rattus norvegicus, n.d.: found not active at threshold dose 2.5 mg/kg or 10 mg/kg (a). The class given is in vivo. As to the method:
Apomorphine (1.0 mg/kg, i.v.)-induced stereotypy (compulsive sniffing, licking, chewing) was scored every 5 min over the first hour after injection of apomorphine, following a 1 hour interval pre-treatment with the test compound. The score system was: (3) pronounced, (2) moderate, (1) slight, and (0) absent.

As a reminder, the ED50 is the dose at which the effect has come halfway, by size or by number of responders. Lower therefore signals an effect at a small dose. `Cc1cc(-c2ccncc2)c2nc(C3CC3)c(-c3ccc(N4CCNCC4)nc3)n2n1` [compound 101, 2-cyclopropyl-6-methyl-3-[6-(1-piperazinyl)-3-pyridinyl]-8-(4-pyridinyl)-imidazo[1,2-b]pyridazine]: the IC50 in assay [1] is 0.178 µM. Also, in assay [2] (not further tested), the 50% effective dose (ED50) is more than 2.5 mg/kg.

Turning to `Cc1nc2c(N3CCOCC3)ccnn2c1-c1ccc(CC(C)C)nc1` [compound 104, 2-methyl-3-[6-(2-methylpropyl)-3-pyridinyl]-8-(4-morpholinyl)-imidazo[1,2-b]pyridazine], in assay [1], the IC50 was 0.0537 µM. The compound further showed a 50% effective dose (ED50) in assay [2] (not further tested) of more than 2.5 mg/kg.

For the compound `COCCOc1ccc(-c2c(C)nc3c(N4CCOCC4)cc(C4CC4)nn23)cn1` [compound 41, 6-cyclopropyl-3-[6-(2-methoxyethoxy)-3-pyridinyl]-2-methyl-8-(4-morpholinyl)-imidazo[1,2-b]pyridazine], the IC50 in assay [1] is 0.407 µM. Moreover, in assay [2] (not further tested), the median effective dose (ED50) is more than 2.5 mg/kg.

For `COCCOc1ccc(-c2c(C3CC3)nc3c(N4CCOCC4)ccnn23)cn1` [compound 73, 2-cyclopropyl-3-[6-(2-methoxyethoxy)-3-pyridinyl]-8-(4-morpholinyl)-imidazo[1,2-b]pyridazine], the IC50 in assay [1] was 0.0977 µM. The same compound registered an ED50 in assay [2] (not further tested) of more than 2.5 mg/kg.

On to `COCCc1ccc(-c2c(C(F)(F)F)nc3c(N4CCOCC4)ccnn23)cn1` [compound 145, 3-[6-(2-methoxyethyl)-3-pyridinyl]-8-(4-morpholinyl)-2-(trifluoromethyl)-imidazo[1,2-b]pyridazine], for which the IC50 in assay [1] is 0.0589 µM. Besides, the ED50 in assay [2] (not further tested) was more than 2.5 mg/kg.

For the compound `c1cc(-c2ccnn3c(-c4ccc(N5CCNCC5)nc4)c(C4CC4)nc23)ccn1` [compound 102, 2-cyclopropyl-3-[6-(1-piperazinyl)-3-pyridinyl]-8-(4-pyridinyl)-imidazo[1,2-b]pyridazine], in assay [1], the IC50 was 0.0447 µM. This compound also returned a 50% effective dose (ED50) in assay [2] (not further tested) of more than 2.5 mg/kg.

Consider `COCCc1ccc(-c2c(C)nc3c(-c4ccncc4)cc(C)nn23)cn1` [compound 24, 3-[6-(2-methoxyethyl)-3-pyridinyl]-2,6-dimethyl-8-(4-pyridinyl)-imidazo[1,2-b]pyridazine], for which the IC50 in assay [1] was 0.0794 µM. In assay [2] (not further tested), this compound showed a median effective dose (ED50) of more than 2.5 mg/kg.

`COCCOc1cncc(-c2c(C)nc3c(-c4ccncc4)ccnn23)c1` [compound 149, 3-[5-(2-methoxyethoxy)-3-pyridinyl]-2-methyl-8-(4-pyridinyl)-imidazo[1,2-b]pyridazine]: the IC50 in assay [1] is 0.151 µM. The same compound gave a 50% effective dose (ED50) in assay [2] (not further tested) of more than 2.5 mg/kg.

Take `CCc1ccc(-c2c(C)nc3c(-c4ccncc4)cc(C4CC4)nn23)cn1` [compound 86, 6-cyclopropyl-3-(6-ethyl-3-pyridinyl)-2-methyl-8-(4-pyridinyl)-imidazo[1,2-b]pyridazine]: the IC50 in assay [1] is 0.263 µM. Moreover, the 50% effective dose (ED50) in assay [2] (not further tested) is more than 2.5 mg/kg.

As to `Cc1nc2c(-c3ccncc3)ccnn2c1-c1ccc(C2CC2)nc1` [compound 111, 3-(6-cyclopropyl-3-pyridinyl)-2-methyl-8-(4-pyridinyl)-imidazo[1,2-b]pyridazine], the IC50 in assay [1] is 0.0977 µM. Further, the median effective dose (ED50) in assay [2] (not further tested) was more than 2.5 mg/kg.

Turning to `COC(C)(C)Cc1ccc(-c2c(C3CC3)nc3c(N4CCOCC4)cc(C)nn23)cn1` [compound 53, 2-cyclopropyl-3-[6-(2-methoxy-2-methylpropyl)-3-pyridinyl]-6-methyl-8-(4-morpholinyl)-imidazo[1,2-b]pyridazine], in assay [1], the IC50 was 0.214 µM. The same compound registered an ED50 in assay [2] (not further tested) of more than 2.5 mg/kg.

With `Cc1cc(-c2ccncc2)c2nc(C3CC3)c(-c3ccc(C4CCOCC4)nc3)n2n1` [compound 80, 2-cyclopropyl-6-methyl-8-(4-pyridinyl)-3-[6-(tetrahydro-2H-pyran-4-yl)-3-pyridinyl]-imidazo[1,2-b]pyridazine], the IC50 in assay [1] was 0.0447 µM. Moreover, the ED50 in assay [2] (not further tested) was more than 2.5 mg/kg.

In the case of `COCCOc1ccc(-c2c(C)nc3c(-c4cccnc4)ccnn23)cn1` [compound 9, 3-[6-(2-methoxyethoxy)-3-pyridinyl]-2-methyl-8-(3-pyridinyl)-imidazo[1,2-b]pyridazine], the IC50 in assay [1] is 0.112 µM. In addition, the 50% effective dose (ED50) in assay [2] (not further tested) is more than 2.5 mg/kg.

In the case of `COCCc1ccc(-c2c(OC)nc3c(N4CCOCC4)ccnn23)cn1` [compound 12, 2-methoxy-3-[6-(2-methoxyethyl)-3-pyridinyl]-8-(4-morpholinyl)-imidazo[1,2-b]pyridazine], the IC50 in assay [1] is 0.224 µM. In assay [2] (not further tested), this compound yielded an ED50 of more than 2.5 mg/kg.

`c1cc(-c2ccnn3c(-c4ccc(N5CCOCC5)nc4)c(C4CC4)nc23)ccn1` [compound 46, 2-cyclopropyl-3-[6-(4-morpholinyl)-3-pyridinyl]-8-(4-pyridinyl)-imidazo[1,2-b]pyridazine]: the IC50 in assay [1] is 0.0174 µM. Moreover, in assay [2] (not further tested), the ED50 was more than 2.5 mg/kg.

For `COCCn1cc(-c2c(C(F)(F)F)nc3c(-c4ccncc4)ccnn23)cn1` [compound 122, 3-[1-(2-methoxyethyl)-1H-pyrazol-4-yl]-8-(4-pyridinyl)-2-(trifluoromethyl)-imidazo[1,2-b]pyridazine], in assay [1], the IC50 is 0.0302 µM. In assay [2] (not further tested), this compound displayed an ED50 of more than 2.5 mg/kg.

Take `COC(C)(C)Cc1ccc(-c2c(C)nc3c(N4CCOCC4)cc(C4CC4)nn23)cn1` [compound 43, 6-cyclopropyl-3-[6-(2-methoxy-2-methylpropyl)-3-pyridinyl]-2-methyl-8-(4-morpholinyl)-imidazo[1,2-b]pyridazine]: the IC50 in assay [1] was 0.191 µM. This compound also gave an ED50 in assay [2] (not further tested) of more than 2.5 mg/kg.

On to `CO[C@@H]1CCN(c2ccc(-c3c(C)nc4c(N5CCOCC5)ccnn34)cn2)C1` [compound 34, 3-[6-[(3R)-3-methoxy-1-pyrrolidinyl]-3-pyridinyl]-2-methyl-8-(4-morpholinyl)-imidazo[1,2-b]pyridazine], for which, in assay [1], the IC50 was 0.117 µM. Moreover, the 50% effective dose (ED50) in assay [2] (not further tested) is more than 2.5 mg/kg.

In the case of `COCCn1cc(-c2c(C(C)C)nc3c(N4CCOCC4)ccnn23)cn1` [compound 120, 3-[1-(2-methoxyethyl)-1H-pyrazol-4-yl]-2-(1-methylethyl)-8-(4-morpholinyl)-imidazo[1,2-b]pyridazine], the IC50 in assay [1] is 0.692 µM. For the same compound, the median effective dose (ED50) in assay [2] (not further tested) is more than 10 mg/kg.

As for `COCCc1ccc(-c2c(C3CC3)nc3c(N4CCOCC4)cc(C)nn23)cn1` [compound 15, 2-cyclopropyl-3-[6-(2-methoxyethyl)-3-pyridinyl]-6-methyl-8-(4-morpholinyl)-imidazo[1,2-b]pyridazine], the IC50 in assay [1] was 0.302 µM. This compound had an ED50 in assay [2] (po, * not soluble, tested orally as a suspension) of more than 2.5 mg/kg.

As for `COC(C)(C)Cc1ccc(-c2c(C)nc3c(-c4ccncc4)cc(C4CC4)nn23)cn1` [compound 40, 6-cyclopropyl-3-[6-(2-methoxy-2-methylpropyl)-3-pyridinyl]-2-methyl-8-(4-pyridinyl)-imidazo[1,2-b]pyridazine], the IC50 in assay [1] was 0.117 µM. This compound had a 50% effective dose (ED50) in assay [2] (not further tested) of more than 2.5 mg/kg.

`Cc1nc2c(-c3ccncc3)ccnn2c1-c1ccc(N2CCNCC2)nc1` [compound 97, 2-methyl-3-[6-(1-piperazinyl)-3-pyridinyl]-8-(4-pyridinyl)-imidazo[1,2-b]pyridazine]: the IC50 in assay [1] was 0.141 µM. Further, in assay [2] (not further tested), the ED50 was more than 2.5 mg/kg.

As for `Cc1cc(-c2ccncc2)c2nc(C)c(-c3ccc(N4CCNCC4)nc3)n2n1` [compound 96, 2,6-dimethyl-3-[6-(1-piperazinyl)-3-pyridinyl]-8-(4-pyridinyl)-imidazo[1,2-b]pyridazine], the IC50 in assay [1] is 0.186 µM. In assay [2] (not further tested), this compound returned a 50% effective dose (ED50) of more than 2.5 mg/kg.

For the compound `COCCCc1ccc(-c2c(C)nc3c(N4CCOCC4)ccnn23)cn1` [compound 2, 3-[6-(3-methoxypropyl)-3-pyridinyl]-2-methyl-8-(4-morpholinyl)-imidazo[1,2-b]pyridazine], the IC50 in assay [1] is 0.0468 µM. Moreover, the 50% effective dose (ED50) in assay [2] (not further tested) was more than 2.5 mg/kg.
